Data as given in patent US9453192B2, “High-acidity vinegar and method for producing the same” (priority 2012, dated 2016).
Like-named read-outs stand apart in the source and are kept apart here.

Tests used:
[1] = system: Acetobacter altoacetigenes MH-24 (FERM BP-491)
Source text: (§1) The present invention relates to a method for producing a high-acidity vinegar having acidity of 10% to 25%, particularly 15% to 25% by brewing, i.e., acetic acid fermentation. In general, the acidity of vinegar means the concentration of acetic acid (w/v %) in the vinegar. The acidity referred to herein means the acetic acid concentration determined by conducting neutralization titration of the sample (vinegar) with phenolphthalein as an indicator and 1N sodium hydroxide aqueous solution in the manner known to persons skilled in the art.
(§2) A culture solution (2.5 L) containing acetic acid (8 w/v %), ethanol (2 v/v %), Acetozym DS+2 (product of FRINGS; 0.15 w/v %), and a variety of additives at given concentrations was introduced into a 5 L-volume jar fermenter. The total nitrogen content of the culture solution was 0.006 w/v %. Cryopreserved Acetobacter altoacetigenes MH-24 (FERM BP-491) was inoculated into the culture solution to start acetic acid fermentation. Submerged fermentation involving aeration stirring was adopted for the fermentation. Fermentation was conducted under the conditions of a temperature at 30° C., a rotative speed of 600 rpm, and an aeration volume of 0.15 vvm.
(§3) After the start of fermentation, 95% ethanol was fed to the fermentation liquid until the acidity (acetic acid concentration: w/v %) of the fermentation liquid exceeded 15% so as to maintain the ethanol concentration in the fermentation liquid at 1.5 to 3 v/v %. At the time point at which the acidity exceeded 15% (approximately 15.5%) and the ethanol concentration reached about 0.5 v/v %, the fermentation liquid was pulled out such that approximately half of the total fermentation liquid volume is remained.
After the portion of the fermentation liquid was pulled out, the above components were added again without discontinuation of aeration and stirring of the remaining fermentation liquid such that the volume of the fermentation liquid was adjusted to 2.5 L and the composition of the fermentation liquid became equivalent to the composition of the original culture solution. Then, fermentation was continued in the above manner. Thereafter the cycle, in which fermentation was conducted until the acidity exceeded 15% (approximately 15.5%), approximately half of the total volume of the fermentation liquid was pulled out and the above components were added again to restart fermentation with decreased acidity, is repeated to conduct semi-continuous fermentation. Seven times repeats of the cycle from the start of fermentation to re-introduction of the components was regarded as one examination. Six examinations were conducted with each different condition of additives. […]

[2] = system: Acetobacter altoacetigenes MH-24 (FERM BP-491); assay: Semi-continuous acetic acid fermentation, culture solution with Acetozym DS+2 and additives (Example 1); type: cell-based; settings: for Final acidity: acidity when a portion of the fermentation liquid was pulled out; for Fermentation time: average time of one cycle (2nd to 7th cycles) until acidity exceeded 15%; for Productivity: rate of increase in acidity per hour
Source text: as §1, §2, §3
After the portion of the fermentation liquid was pulled out, the above components were added again without discontinuation of aeration and stirring of the remaining fermentation liquid such that the volume of the fermentation liquid was adjusted to 2.5 L and the composition of the fermentation liquid became equivalent to the composition of the original culture solution. Then, fermentation was continued in the above manner. Thereafter the cycle, in which fermentation was conducted until the acidity exceeded 15% (approximately 15.5%), approximately half of the total volume of the fermentation liquid was pulled out and the above components were added again to restart fermentation with decreased acidity, is repeated to conduct semi-continuous fermentation. Seven times repeats of the cycle from the start of fermentation to re-introduction of the components was regarded as one examination. Six examinations were conducted with each different condition of additives. Table 1 summarizes the average time duration required for one cycle, i.e., from the restart of fermentation to the time point at which the acidity exceeded 15%, (the average time of 2nd to 7th cycles), final acidity (acidity when a portion of the fermentation liquid was pulled out), and productivity (the rate of increase in acidity per hour) with the types and amounts of additives.

[3] = Glutathione 220 μM, 4 cycle repetitions

N[C@@H](CCC(=O)N[C@@H](CS)C(=O)NCC(=O)O)C(=O)O [Glutathione] was tested, and the Fermentation time [1, 3] was 51.3 h, the Final acidity [1, 3] was 15.4% and the Productivity ([1]; Glutathione 220 μM, 4 cycle repetitions, rate of increase in acidity per hour) was 0.144 %/h. For the same molecule, the Effect on productivity ([1]; Glutathione used as additive (220 μM), versus no additive) was “productivity was significantly improved”.
In the case of N[C@@H](CSSC[C@H](N)C(=O)O)C(=O)O [L-cystine], the Final acidity ([2]; L-cystine 18 μM) is reported as 15.4%, the Fermentation time ([2]; L-cystine 18 μM) is reported as 48.9 h and the Productivity ([2]; L-cystine 18 μM) is reported as 0.151 %/h. The Final acidity ([2]; L-cystine 45 μM) was 15.3%, the Fermentation time ([2]; L-cystine 45 μM) was 41.7 h and the Productivity ([2]; L-cystine 45 μM) was 0.175 %/h. The Final acidity ([2]; L-cystine 90 μM) was 15.3%, the Fermentation time ([2]; L-cystine 90 μM) was 37.5 h and the Productivity ([2]; L-cystine 90 μM) was 0.195 %/h. The “Effect on productivity as compared with Exam 1 (no additive)” value ([2]; L-cystine alone, 18 μM (Exam 2)) was “effect of improving productivity was confirmed”.
